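Grown in 96-well plates, cells were treated for 48 hours with each compound at five concentrations. Insufficient inhibition: endpoint recorded as highest concentration tested. GI50 is the concentration that inhibits growth by half.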 Activity calls are given as the source filed them. Cut-off read from the data, not from the text of the source: active = GI50 up to about 1.1 µM and inactive = higher. Some results are limits rather than exact numbers.

Among the test systems are SK-MEL-2; SF-268; HCT-15; SK-MEL-28; RXF 393; HCC 2998; OVCAR-5; RPMI-8226; 786-0; SK-MEL-5; A498; COLO 205; NCI-H23; CAKI-1; A549; MDA-N; PC-3; UO-31; K562; SF-539.
Holding throughout (assay): NCI anticancer screen, dose series, 48 h

With `CN1C(=O)C(O)CC1c1ccc(C(F)(F)F)cc1` (stereo not given), the GI50 in the assay on SK-MEL-2 was > 100 µM (inactive); with SF-268, > 100 µM (inactive); in the assay on HCT-15 it was greater than 100 µM; with SK-MEL-28 it was > 100 µM (inactive); in the assay on RXF 393, > 100 µM (inactive); in the assay with HCC 2998 it was > 100 µM (inactive). Besides, the GI50 in the assay on OVCAR-5, in the assay with RPMI-8226, with 786-0, in the assay on SK-MEL-5, with A498 and in the assay with COLO 205 was > 100 µM (inactive) each time. Besides, the GI50 with NCI-H23, in the assay with CAKI-1, in the assay with A549, in the assay on MDA-N, in the assay with PC-3 and with UO-31 was > 100 µM (inactive) in each case. For the same molecule, the GI50 in the assay on K562 and with SF-539 was > 100 µM (inactive) each time.

For the molecule `Oc1ccc(Cl)cc1-c1cc(-c2ccccc2)nc(S)n1`, the GI50 with SK-MEL-2 was 27.2 µM (inactive); with SF-268, 27.3 µM (inactive); in the assay on HCT-15, 94 µM; with SK-MEL-28, > 100 µM (inactive); in the assay on RXF 393, 71.3 µM (inactive); in the assay with HCC 2998, > 100 µM (inactive). Further, the GI50 in the assay with OVCAR-5 is > 100 µM (inactive); with RPMI-8226 it was > 100 µM (inactive); with 786-0 it was 26.3 µM (inactive); in the assay with SK-MEL-5 it was > 100 µM (inactive); in the assay on A498 it was 41.6 µM (inactive); with COLO 205, > 100 µM (inactive). For the same molecule, the GI50 is 88.5 µM (inactive) with NCI-H23; > 100 µM (inactive) with CAKI-1; > 100 µM (inactive) with A549; > 100 µM (inactive) in the assay on MDA-N; > 100 µM (inactive) in the assay with PC-3; 24 µM (inactive) in the assay with UO-31. In addition, the GI50 with K562 is > 100 µM (inactive); in the assay on SF-539 it was 42.6 µM (inactive).

Turning to `C=C1CC=CC(C)(C)C1C/C=C(\C)C(O)CBr` (stereo not given), the GI50 in the assay with SK-MEL-2 was > 100 µM (inactive); in the assay with SF-268, > 100 µM (inactive); in the assay with HCT-15, 51.1 µM; with SK-MEL-28 it was > 100 µM (inactive); with RXF 393, 26.7 µM (inactive); with HCC 2998 it was 87.9 µM (inactive). Moreover, the GI50 with OVCAR-5 was > 100 µM (inactive); with RPMI-8226, 25.4 µM (inactive); in the assay with 786-0 it was 28.6 µM (inactive); in the assay with SK-MEL-5 it was 62.8 µM (inactive); in the assay with A498, > 100 µM (inactive); in the assay with COLO 205, 39 µM (inactive). The GI50 in the assay with NCI-H23 was > 100 µM (inactive); in the assay with CAKI-1 it was 23.2 µM (inactive); with A549, 74.3 µM (inactive); in the assay on MDA-N, 42.6 µM (inactive); with PC-3 it was 47.6 µM (inactive); in the assay with UO-31, 35.7 µM (inactive). Moreover, the results for the GI50 in the assay with K562 and in the assay with SF-539 were 67.8 µM (inactive) and 29.9 µM (inactive), respectively.

`CC(C)CC(N)C(=O)Nc1ccc2ccccc2c1` (stereo not given): the GI50 in the assay on SK-MEL-2 was > 100 µM (inactive); in the assay on SF-268, > 100 µM (inactive); in the assay with HCT-15, greater than 100 µM; in the assay on SK-MEL-28 it was > 100 µM (inactive); in the assay on RXF 393, > 100 µM (inactive); in the assay on HCC 2998, > 100 µM (inactive). The GI50 in the assay on OVCAR-5, in the assay with RPMI-8226, in the assay on 786-0, with SK-MEL-5, with A498 and with COLO 205 was > 100 µM (inactive) in each case. Further, the GI50 in the assay on NCI-H23 is > 100 µM (inactive); in the assay with CAKI-1, 63.1 µM (inactive); in the assay with A549, > 100 µM (inactive); with MDA-N it was > 100 µM (inactive); with PC-3, > 100 µM (inactive); in the assay on UO-31, > 100 µM (inactive). The GI50 with K562 and in the assay with SF-539 was > 100 µM (inactive) throughout.

Consider `COc1cc(Br)cc2nc(-c3cccs3)oc12`, for which the GI50 in the assay on SK-MEL-2 was > 100 µM (inactive); in the assay on SF-268 it was > 62.4 µM (inactive); in the assay on HCT-15 it was 16.2 µM; with SK-MEL-28, > 100 µM (inactive); with RXF 393 it was 45.6 µM (inactive); in the assay with HCC 2998 it was > 100 µM (inactive). The GI50 with OVCAR-5 is > 100 µM (inactive); in the assay on RPMI-8226, > 100 µM (inactive); in the assay with 786-0, > 56 µM (inactive); in the assay with SK-MEL-5, 74.1 µM (inactive); in the assay with A498 it was > 55.3 µM (inactive); in the assay on COLO 205 it was > 100 µM (inactive). For the same molecule, the GI50 is > 68.1 µM (inactive) in the assay with NCI-H23; > 86.5 µM (inactive) in the assay with CAKI-1; > 100 µM (inactive) in the assay on A549; > 100 µM (inactive) in the assay with MDA-N; > 100 µM (inactive) in the assay with PC-3; > 54.7 µM (inactive) in the assay with UO-31. Also, the figures for the GI50 in the assay on K562 and in the assay with SF-539 were > 100 µM (inactive) and 75.9 µM (inactive), respectively.

Take `COc1cc2c(cc1OCCCNC(=O)c1cc3ccccc3[nH]1)N=C[C@@H]1CCCN1C2=O`: the GI50 in the assay with SK-MEL-2 was 0.179 µM (active); with SF-268 it was 0.082 µM (active); in the assay with HCT-15 it was 0.897 µM; in the assay with SK-MEL-28, 0.318 µM (active); in the assay with RXF 393 it was 0.0966 µM (active); in the assay with HCC 2998, 0.664 µM (active). Also, the GI50 in the assay on OVCAR-5 is 0.352 µM (active); in the assay with RPMI-8226 it was 0.474 µM (active); with 786-0, 0.237 µM (active); with SK-MEL-5, 0.195 µM (active); in the assay with A498 it was 0.0527 µM (active); in the assay on COLO 205 it was 0.391 µM (active). Moreover, the GI50 in the assay with NCI-H23 was 0.504 µM (active); with CAKI-1 it was 0.296 µM (active); in the assay with A549, 0.632 µM (active); in the assay on MDA-N, 0.254 µM (active); in the assay on PC-3, 0.358 µM (active); in the assay on UO-31, 0.318 µM (active). Moreover, the GI50 in the assay with K562 was 0.243 µM (active); in the assay on SF-539, 0.24 µM (active).

`CCOC(=O)C(NC(=O)CC(C)C)(Nc1ccc(S(=O)(=O)Nc2nc(C)cc(C)n2)cc1)C(F)(F)F` (stereo not given): the GI50 is > 100 µM (inactive) with SK-MEL-2; > 100 µM (inactive) in the assay with SF-268; greater than 100 µM in the assay on HCT-15; > 100 µM (inactive) with SK-MEL-28; > 100 µM (inactive) in the assay with RXF 393; 7.87 µM (inactive) in the assay with HCC 2998. The GI50 in the assay on OVCAR-5, with RPMI-8226, in the assay on 786-0, with SK-MEL-5, with A498 and with COLO 205 was > 100 µM (inactive) throughout. Moreover, the GI50 in the assay with NCI-H23, in the assay with CAKI-1, with A549, in the assay on MDA-N, in the assay on PC-3 and in the assay with UO-31 was > 100 µM (inactive) in each case. The GI50 in the assay on K562 and in the assay on SF-539 was > 100 µM (inactive) each time.

Turning to `CC(C)(C)C1=CC(=CC=C2C=CN(CCCCCCCCCCCO)C=C2)C=C(C(C)(C)C)C1=O`, the GI50 in the assay with SK-MEL-2 was 1.83 µM (inactive); with SF-268 it was 1.57 µM (inactive); in the assay on HCT-15 it was 2.6 µM; in the assay with SK-MEL-28, 1.78 µM (inactive); in the assay on RXF 393, 0.9 µM (active); in the assay on HCC 2998, 0.838 µM (active). Besides, the GI50 was 2.48 µM (inactive) in the assay with OVCAR-5; 0.338 µM (active) in the assay on RPMI-8226; 1.26 µM (inactive) in the assay on 786-0; 1.73 µM (inactive) with SK-MEL-5; 3.01 µM (inactive) with A498; 1.69 µM (inactive) with COLO 205. Also, the GI50 in the assay on NCI-H23 is 2.03 µM (inactive); in the assay with CAKI-1, 2.48 µM (inactive); with A549, 1.62 µM (inactive); in the assay on MDA-N, 1.87 µM (inactive); with PC-3 it was 1.69 µM (inactive); in the assay with UO-31, 1.76 µM (inactive). Also, the GI50 with K562 is 1.06 µM (active); in the assay with SF-539, 2.07 µM (inactive).

On to `C=CCN1C(=O)/C(=C/c2ccc(Cl)cc2)N=C1SC/C=C/C`, for which the GI50 with SK-MEL-2 is 24.2 µM (inactive); in the assay on SF-268, 48.3 µM (inactive); in the assay with HCT-15 it was 34.2 µM; with SK-MEL-28 it was 53.2 µM (inactive); in the assay on RXF 393 it was 15.7 µM (inactive); in the assay on HCC 2998, 49.9 µM (inactive). The GI50 was 37.8 µM (inactive) with OVCAR-5; 17.3 µM (inactive) with RPMI-8226; 33 µM (inactive) with 786-0; 24.4 µM (inactive) with SK-MEL-5; 33.9 µM (inactive) in the assay on A498; 32.1 µM (inactive) in the assay on COLO 205. Also, the GI50 with NCI-H23 was 32.1 µM (inactive); in the assay with CAKI-1, 61.2 µM (inactive); with A549, 11.2 µM (inactive); with MDA-N it was 25.3 µM (inactive); in the assay on PC-3, 31.4 µM (inactive); in the assay with UO-31, 34.7 µM (inactive). In addition, the GI50 was 25.5 µM (inactive) with K562 and > 100 µM (inactive) in the assay on SF-539.

Regarding `O=c1[nH]c2cc(Cl)ccc2nc1/C(=N/Nc1ccccc1)C(O)c1ccco1` (stereo not given), the GI50 was > 100 µM (inactive) with SK-MEL-2; > 100 µM (inactive) in the assay with SF-268; greater than 100 µM in the assay on HCT-15; > 100 µM (inactive) in the assay with SK-MEL-28; > 100 µM (inactive) in the assay with RXF 393; > 100 µM (inactive) with HCC 2998. Besides, the GI50 with OVCAR-5, with RPMI-8226, in the assay with 786-0, in the assay with SK-MEL-5, in the assay on A498 and in the assay on COLO 205 was > 100 µM (inactive) throughout. The GI50 in the assay on NCI-H23, in the assay on CAKI-1, with A549, with MDA-N, in the assay with PC-3 and in the assay on UO-31 was > 100 µM (inactive) each time. The GI50 in the assay on K562 and in the assay with SF-539 was > 100 µM (inactive) throughout.

These data come from ChEMBL document CHEMBL1201862, “PubChem BioAssay data set” (2004).
